This assay deals with T1, Gag-Pol polyprotein [1148-1435] (Human immunodeficiency virus 1, UniProt P04585).
T1 construct: 1148-1435
Put plainly: DNA Strand-Transfer Activity Assay. As to conditions: pH 7.3; 22 °C. As for the experimental part: In the strand-transfer assay, the biotinylated donor DNA was bound to streptavidin-coated plates, and integrase was added to each well to allow processing of the donor DNA. Serially diluted compounds and DIG-tagged target DNA were then added to each well, and 3-end joining reaction was allowed to proceed for 30 min. Signal was detected using horseradishperoxidase-conjugated anti-Digoxin antibody through chemiluminescence measurement.

For the compound `COc1c2c(c(O)c3ncc(Cc4ccc(F)cc4)cc13)C(=O)N(C)C2` [3-[(4-fluorophenyl)methyl]-9-hydroxy-5-methoxy-7-methyl-6H,7H,8H-pyrrolo[3,4-g]quinolin-8-one], half-maximal inhibition (IC50) required 100 nM.

The values above are taken from BindingDB's records for doi:10.1016/j.bmcl.2008.12.079 (Gilead Sciences, 2009).
